Results: ChEMBL document CHEMBL5291721, “A preclinical secondary pharmacology resource illuminates target-adverse drug reaction associations of marketed drugs” (Nat Commun, 2023)

Assays:
Adenosine receptor A1 = target: T1, Adenosine receptor A1 (Homo sapiens, UniProt P30542)
T1 sequence (P30542 whole entry): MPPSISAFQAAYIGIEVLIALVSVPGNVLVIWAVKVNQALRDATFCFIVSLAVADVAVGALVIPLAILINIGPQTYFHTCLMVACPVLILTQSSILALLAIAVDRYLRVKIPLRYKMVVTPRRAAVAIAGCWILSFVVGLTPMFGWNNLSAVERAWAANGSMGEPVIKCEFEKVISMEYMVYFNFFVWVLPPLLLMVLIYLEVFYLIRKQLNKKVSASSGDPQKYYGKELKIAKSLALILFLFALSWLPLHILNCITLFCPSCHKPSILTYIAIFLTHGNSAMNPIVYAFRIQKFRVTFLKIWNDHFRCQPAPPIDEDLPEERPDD

[1] = target: T2, Alpha-2A adrenergic receptor (Homo sapiens, UniProt P08913); assay type: functional, cell-based
T2 sequence (P08913 whole entry): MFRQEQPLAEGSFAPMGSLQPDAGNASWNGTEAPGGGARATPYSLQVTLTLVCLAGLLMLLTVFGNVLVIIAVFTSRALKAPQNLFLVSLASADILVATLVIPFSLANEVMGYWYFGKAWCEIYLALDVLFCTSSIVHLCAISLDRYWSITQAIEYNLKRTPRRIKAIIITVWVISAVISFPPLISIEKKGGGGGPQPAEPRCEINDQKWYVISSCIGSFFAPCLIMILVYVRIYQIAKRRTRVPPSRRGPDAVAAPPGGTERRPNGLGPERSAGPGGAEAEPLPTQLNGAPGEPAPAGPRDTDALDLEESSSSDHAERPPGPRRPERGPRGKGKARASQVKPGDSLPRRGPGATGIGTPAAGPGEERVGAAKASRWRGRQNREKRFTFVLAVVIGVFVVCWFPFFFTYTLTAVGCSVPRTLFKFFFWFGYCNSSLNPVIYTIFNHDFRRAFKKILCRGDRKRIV

Vasopressin V2 receptor = Vasopressin V2 receptor (Homo sapiens, UniProt P30518)
[2] = target: Gamma-aminobutyric acid receptor subunit alpha-1 (Rattus norvegicus, UniProt P62813)
[3] = target: T3, 5-hydroxytryptamine receptor 1A (Homo sapiens, UniProt P08908); assay type: functional, cell-based
T3 sequence (P08908 whole entry): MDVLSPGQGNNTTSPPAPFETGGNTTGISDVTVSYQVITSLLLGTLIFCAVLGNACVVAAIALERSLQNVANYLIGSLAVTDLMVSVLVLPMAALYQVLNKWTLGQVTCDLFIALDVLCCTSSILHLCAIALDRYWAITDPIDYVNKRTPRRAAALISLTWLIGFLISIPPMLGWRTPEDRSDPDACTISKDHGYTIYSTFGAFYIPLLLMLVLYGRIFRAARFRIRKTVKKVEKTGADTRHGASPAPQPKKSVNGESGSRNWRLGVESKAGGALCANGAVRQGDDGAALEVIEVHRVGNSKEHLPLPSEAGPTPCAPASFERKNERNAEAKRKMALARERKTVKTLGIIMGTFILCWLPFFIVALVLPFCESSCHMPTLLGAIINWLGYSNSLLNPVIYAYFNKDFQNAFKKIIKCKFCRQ

[4] = target: 5-hydroxytryptamine receptor 2A (Homo sapiens, UniProt P28223); assay type: functional, cell-based
[5] = target: 5-hydroxytryptamine receptor 2B (Homo sapiens, UniProt P41595); assay type: functional, cell-based
Glucocorticoid receptor = target: T4, Glucocorticoid receptor (Homo sapiens, UniProt P04150)
T4 sequence (P04150 whole entry): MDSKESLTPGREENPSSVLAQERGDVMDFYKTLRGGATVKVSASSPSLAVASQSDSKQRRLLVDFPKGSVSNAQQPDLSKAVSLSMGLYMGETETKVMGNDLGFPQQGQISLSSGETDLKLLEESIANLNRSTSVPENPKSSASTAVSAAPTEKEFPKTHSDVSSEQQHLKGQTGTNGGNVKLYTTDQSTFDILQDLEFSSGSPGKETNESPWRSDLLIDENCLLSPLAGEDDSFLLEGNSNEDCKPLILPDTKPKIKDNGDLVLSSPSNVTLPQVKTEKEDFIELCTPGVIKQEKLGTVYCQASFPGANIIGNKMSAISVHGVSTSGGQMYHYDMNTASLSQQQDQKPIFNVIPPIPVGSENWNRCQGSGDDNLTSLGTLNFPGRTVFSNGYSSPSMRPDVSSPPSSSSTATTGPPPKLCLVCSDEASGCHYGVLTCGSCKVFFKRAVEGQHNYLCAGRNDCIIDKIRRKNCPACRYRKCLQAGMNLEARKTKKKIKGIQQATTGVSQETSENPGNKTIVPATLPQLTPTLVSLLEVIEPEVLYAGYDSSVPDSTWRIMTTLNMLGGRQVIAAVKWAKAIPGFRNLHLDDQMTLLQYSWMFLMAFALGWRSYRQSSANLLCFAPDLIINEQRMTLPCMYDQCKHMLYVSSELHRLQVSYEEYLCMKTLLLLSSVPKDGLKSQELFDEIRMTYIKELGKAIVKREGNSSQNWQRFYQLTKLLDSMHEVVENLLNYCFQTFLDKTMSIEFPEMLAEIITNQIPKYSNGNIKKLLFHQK

[6] = target: Delta-type opioid receptor (Homo sapiens, UniProt P41143)
[7] = target: Kappa-type opioid receptor (Homo sapiens, UniProt P41145)
Cannabinoid receptor 1 = Cannabinoid receptor 1 (Homo sapiens, UniProt P21554); assay type: functional, cell-based
Histamine H3 receptor = Histamine H3 receptor (Homo sapiens, UniProt Q9Y5N1)
[8] = target: T5, Gastrin/cholecystokinin type B receptor (Homo sapiens, UniProt P32239)
T5 sequence (P32239 whole entry): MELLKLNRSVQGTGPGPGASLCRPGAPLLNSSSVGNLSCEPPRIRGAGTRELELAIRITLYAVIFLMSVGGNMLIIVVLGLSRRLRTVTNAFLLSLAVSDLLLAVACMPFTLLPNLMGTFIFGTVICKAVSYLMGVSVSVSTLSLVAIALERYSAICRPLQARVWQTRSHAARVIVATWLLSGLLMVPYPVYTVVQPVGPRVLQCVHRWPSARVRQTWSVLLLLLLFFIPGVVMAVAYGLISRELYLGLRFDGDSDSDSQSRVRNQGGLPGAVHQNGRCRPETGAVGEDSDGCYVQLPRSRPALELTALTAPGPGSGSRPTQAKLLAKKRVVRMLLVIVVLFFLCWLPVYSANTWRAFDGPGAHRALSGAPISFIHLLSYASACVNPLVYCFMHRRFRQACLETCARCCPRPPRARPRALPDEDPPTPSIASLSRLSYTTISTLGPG
Also: assay procedure not described here.

Sequence of Vasopressin V2 receptor (P30518 whole entry): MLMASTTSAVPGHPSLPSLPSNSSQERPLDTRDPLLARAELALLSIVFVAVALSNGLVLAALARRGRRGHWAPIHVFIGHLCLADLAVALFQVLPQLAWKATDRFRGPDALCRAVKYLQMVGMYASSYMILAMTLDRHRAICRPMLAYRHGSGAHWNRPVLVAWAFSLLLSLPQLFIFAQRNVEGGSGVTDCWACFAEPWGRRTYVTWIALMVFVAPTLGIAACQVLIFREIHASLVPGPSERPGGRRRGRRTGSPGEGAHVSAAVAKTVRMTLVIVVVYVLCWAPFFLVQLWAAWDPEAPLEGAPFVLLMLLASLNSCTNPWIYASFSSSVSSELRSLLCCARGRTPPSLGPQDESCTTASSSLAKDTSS
Sequence of Kappa-type opioid receptor (P41145 whole entry): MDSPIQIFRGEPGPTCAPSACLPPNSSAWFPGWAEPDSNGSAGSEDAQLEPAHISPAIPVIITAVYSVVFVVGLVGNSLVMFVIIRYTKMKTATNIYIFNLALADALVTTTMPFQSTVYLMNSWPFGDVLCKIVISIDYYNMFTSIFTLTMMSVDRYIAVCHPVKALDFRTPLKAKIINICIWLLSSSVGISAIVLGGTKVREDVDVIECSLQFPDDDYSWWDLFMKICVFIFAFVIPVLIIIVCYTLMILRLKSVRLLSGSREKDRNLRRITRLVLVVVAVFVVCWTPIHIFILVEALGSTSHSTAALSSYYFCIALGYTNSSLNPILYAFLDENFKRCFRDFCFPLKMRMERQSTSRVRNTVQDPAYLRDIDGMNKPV
Sequence of Cannabinoid receptor 1 (P21554 whole entry): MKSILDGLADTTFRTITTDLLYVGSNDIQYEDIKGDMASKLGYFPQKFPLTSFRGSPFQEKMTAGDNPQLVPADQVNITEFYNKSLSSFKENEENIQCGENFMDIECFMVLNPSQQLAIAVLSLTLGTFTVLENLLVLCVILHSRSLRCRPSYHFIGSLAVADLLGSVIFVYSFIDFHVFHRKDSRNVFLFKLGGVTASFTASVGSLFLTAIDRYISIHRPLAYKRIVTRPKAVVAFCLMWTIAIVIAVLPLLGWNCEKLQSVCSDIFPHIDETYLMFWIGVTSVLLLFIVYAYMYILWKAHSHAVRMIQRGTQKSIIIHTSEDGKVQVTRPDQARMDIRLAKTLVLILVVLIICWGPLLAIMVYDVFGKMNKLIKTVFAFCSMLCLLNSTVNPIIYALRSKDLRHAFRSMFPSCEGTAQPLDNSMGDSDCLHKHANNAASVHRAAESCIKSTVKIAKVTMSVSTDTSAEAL
Sequence of Delta-type opioid receptor (P41143 whole entry): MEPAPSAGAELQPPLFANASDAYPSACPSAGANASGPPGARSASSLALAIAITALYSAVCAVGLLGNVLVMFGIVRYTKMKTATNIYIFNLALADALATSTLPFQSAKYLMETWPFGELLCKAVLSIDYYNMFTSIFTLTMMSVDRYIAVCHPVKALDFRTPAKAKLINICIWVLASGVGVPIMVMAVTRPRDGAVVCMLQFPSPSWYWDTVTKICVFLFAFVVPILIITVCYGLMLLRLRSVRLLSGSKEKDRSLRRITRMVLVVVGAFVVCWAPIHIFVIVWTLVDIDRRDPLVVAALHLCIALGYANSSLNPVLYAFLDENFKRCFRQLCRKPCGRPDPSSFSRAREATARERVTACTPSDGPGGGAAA
Sequence of 5-hydroxytryptamine receptor 2B (P41595 whole entry): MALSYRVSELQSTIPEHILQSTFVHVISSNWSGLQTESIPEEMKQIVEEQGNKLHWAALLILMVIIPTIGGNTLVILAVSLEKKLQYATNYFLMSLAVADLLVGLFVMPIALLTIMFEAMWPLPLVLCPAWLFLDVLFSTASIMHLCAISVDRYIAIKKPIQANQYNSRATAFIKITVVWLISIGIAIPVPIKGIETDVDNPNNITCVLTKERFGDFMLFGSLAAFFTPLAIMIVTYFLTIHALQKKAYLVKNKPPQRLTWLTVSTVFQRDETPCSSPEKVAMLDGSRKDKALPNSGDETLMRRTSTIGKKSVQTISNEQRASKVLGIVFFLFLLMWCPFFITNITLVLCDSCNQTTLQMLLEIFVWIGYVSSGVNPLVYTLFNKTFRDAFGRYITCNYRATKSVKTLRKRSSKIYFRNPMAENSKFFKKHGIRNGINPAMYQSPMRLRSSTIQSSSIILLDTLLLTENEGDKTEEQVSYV
Sequence of 5-hydroxytryptamine receptor 2A (P28223 whole entry): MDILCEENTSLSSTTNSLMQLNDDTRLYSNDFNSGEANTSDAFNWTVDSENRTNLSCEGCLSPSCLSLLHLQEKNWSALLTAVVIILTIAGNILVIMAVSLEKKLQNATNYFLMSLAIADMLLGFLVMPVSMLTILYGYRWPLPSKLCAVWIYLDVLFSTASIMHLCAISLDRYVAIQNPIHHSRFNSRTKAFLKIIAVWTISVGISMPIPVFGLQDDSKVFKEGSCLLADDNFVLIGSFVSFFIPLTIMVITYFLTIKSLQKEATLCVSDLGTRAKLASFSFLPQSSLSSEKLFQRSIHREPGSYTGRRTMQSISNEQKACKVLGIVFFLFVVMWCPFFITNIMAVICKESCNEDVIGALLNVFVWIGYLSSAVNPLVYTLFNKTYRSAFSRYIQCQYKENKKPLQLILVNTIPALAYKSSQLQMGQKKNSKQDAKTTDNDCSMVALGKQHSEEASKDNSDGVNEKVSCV
Sequence of Histamine H3 receptor (Q9Y5N1 whole entry): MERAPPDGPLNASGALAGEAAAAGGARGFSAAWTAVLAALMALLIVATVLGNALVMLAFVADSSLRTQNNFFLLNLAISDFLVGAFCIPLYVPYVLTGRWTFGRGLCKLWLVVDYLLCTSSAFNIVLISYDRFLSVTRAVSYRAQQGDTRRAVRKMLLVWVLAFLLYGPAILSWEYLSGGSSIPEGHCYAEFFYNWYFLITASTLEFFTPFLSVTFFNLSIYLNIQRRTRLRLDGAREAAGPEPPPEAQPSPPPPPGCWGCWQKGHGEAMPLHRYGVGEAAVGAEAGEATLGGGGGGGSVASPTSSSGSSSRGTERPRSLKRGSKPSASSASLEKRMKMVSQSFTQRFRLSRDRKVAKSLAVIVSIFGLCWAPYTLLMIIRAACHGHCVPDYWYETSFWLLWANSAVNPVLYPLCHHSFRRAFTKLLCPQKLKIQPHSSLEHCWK
Sequence of Gamma-aminobutyric acid receptor subunit alpha-1 (P62813 whole entry): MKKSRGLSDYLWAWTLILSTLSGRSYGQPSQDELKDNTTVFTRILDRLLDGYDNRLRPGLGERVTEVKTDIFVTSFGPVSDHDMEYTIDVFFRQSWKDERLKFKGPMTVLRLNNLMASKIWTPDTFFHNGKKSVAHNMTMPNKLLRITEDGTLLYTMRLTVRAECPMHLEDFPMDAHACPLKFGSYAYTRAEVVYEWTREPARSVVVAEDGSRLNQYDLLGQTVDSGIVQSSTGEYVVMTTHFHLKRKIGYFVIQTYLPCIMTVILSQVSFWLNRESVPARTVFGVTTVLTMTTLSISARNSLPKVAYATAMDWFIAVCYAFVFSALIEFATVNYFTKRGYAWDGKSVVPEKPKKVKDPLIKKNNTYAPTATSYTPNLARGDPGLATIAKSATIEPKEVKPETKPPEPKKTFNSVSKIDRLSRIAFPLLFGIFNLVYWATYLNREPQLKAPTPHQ

Structure (SMILES) | AC50 (Adenosine receptor A1) [µM] | AC50 [1] [µM] | AC50 (Vasopressin V2 receptor) [µM] | AC50 [2] [µM] | AC50 [3] [µM] | AC50 [4] [µM] | AC50 [5] [µM] | AC50 (Glucocorticoid receptor) [µM] | AC50 [6] [µM] | AC50 [7] [µM] | AC50 (Cannabinoid receptor 1) [µM] | AC50 (Histamine H3 receptor) [µM] | AC50 [8] [µM]
CO[C@@H]1[C@@H](O[C@@H]2O[C@H](C)[C@@H](O[C@H]3C[C@@](C)(O)[C@@H](OC(=O)CC(C)C)[C@H](C)O3)[C@H](N(C)C)[C@H]2O)[C@@H](CC=O)C[C@@H](C)[C@@H](O)/C=C/C=C/C[C@@H](C)OC(=O)C[C@H]1OC(C)=O [JOSAMYCIN] | > 10 | > 10 | > 10 | > 10 | > 10 | > 10 | > 10 | > 10 | > 30 | > 10 |  |  | 
COC(=O)[C@H]1[C@H]2C[C@@H]3c4[nH]c5cc(OC)ccc5c4CCN3C[C@H]2C[C@@H](OC(=O)/C=C/c2cc(OC)c(OC)c(OC)c2)[C@@H]1OC [RESCINNAMINE] | > 30 | > 10 | > 10 | > 10 | > 10 | > 10 | > 10 | > 10 | > 30 | > 30 |  |  | 
CC1(C)O[C@@H]2C[C@H]3[C@@H]4CCC5=CC(=O)C=C[C@]5(C)[C@H]4[C@@H](O)C[C@]3(C)[C@]2(C(=O)CO)O1 [DESONIDE] | > 10 | > 10 | > 10 | > 10 | > 10 | > 10 | > 10 | 0.016 | > 30 | > 10 | > 30 |  | 
CC(C[N+](C)(C)C)OC(N)=O (stereo not given) [BETHANECHOL] | > 10 | > 10 | > 10 | > 10 | > 10 | > 10 | > 10 | > 10 | > 30 | > 10 | > 30 | > 10 | 
O=C(O)[C@H](CC(=O)N1C[C@H]2CCCC[C@H]2C1)Cc1ccccc1 [MITIGLINIDE] | > 10 | > 10 | > 10 | > 10 | > 10 | > 10 | > 10 | > 10 | > 30 | > 10 |  |  | 
CC[C@@H]1C(=O)OC[C@@H]1Cc1cncn1C [PILOCARPINE] | > 30 | > 10 | > 30 | > 10 | > 30 | > 30 | > 10 |  | > 30 | > 10 | > 30 | > 10 | > 30
C[C@H](CSC(=O)c1ccccc1)C(=O)N1C[C@@H](Sc2ccccc2)C[C@H]1C(=O)O [ZOFENOPRIL] | > 10 | > 10 | > 10 | > 10 | > 10 | > 10 | > 10 | > 10 | > 30 | > 10 |  |  | 
O=C(O)C[C@H](O)C[C@H](O)/C=C/c1c(C2CC2)nc2ccccc2c1-c1ccc(F)cc1 [PITAVASTATIN] | > 10 | > 10 | > 10 | > 10 | > 10 | > 30 | > 10 | > 10 | > 30 | > 10 |  |  | 
C[C@]1(O)CC[C@H]2[C@@H]3CCC4=CC(=O)CC[C@]4(C)[C@@]3(F)[C@@H](O)C[C@@]21C [FLUOXYMESTERONE] | > 10 | > 10 | > 10 | > 10 | > 10 | > 10 | > 10 | 0.088 | > 30 | > 10 |  |  | 
C=CCC1(C(C)CC)C(=O)NC(=O)NC1=O (stereo not given) [TALBUTAL] | > 10 | > 10 | > 10 | > 10 | > 10 | > 10 | > 10 | > 10 | > 30 | > 10 |  | > 10 | 
CN1C(=O)C(O)N=C(c2ccccc2)c2cc(Cl)ccc21 (stereo not given) [TEMAZEPAM] | > 30 | > 10 | > 30 | > 10 | > 10 | > 30 | > 10 |  | > 30 | 9.19 | > 30 | > 10 | > 30
C=CCC1(CC(C)C)C(=O)NC(=O)NC1=O [BUTALBITAL] | > 10 | > 10 | > 10 | > 10 | > 10 | > 10 | > 10 | > 10 | > 30 | > 10 |  |  | 
CC(CC(c1ccccc1)c1ccccc1)NC(C)(C)C (stereo not given) [TERODILINE] | > 30 | > 30 | > 30 | > 30 | > 30 | > 30 | > 30 |  | > 30 | 8.4 | > 30 | > 30 | > 30
CCCC(=O)O[C@]1(C(=O)CO)CC[C@H]2[C@@H]3CCC4=CC(=O)CC[C@]4(C)[C@H]3[C@@H](O)C[C@@]21C [HYDROCORTISONE BUTYRATE] | > 10 | > 10 | > 10 | > 10 | > 10 | > 10 | > 10 | 0.008 | > 30 | > 10 |  |  | 
C[C@H](N)[C@H](O)c1cccc(O)c1 [METARAMINOL] | > 10 | > 10 | > 10 | > 10 | > 10 | > 10 | 12 | > 10 | > 30 | > 10 |  |  | 
